Measurements as given in patent US5763492A, “Methods for effecting memory enhancement mediated by non-steroidal sulfatase inhibitors” (Duguesne University of the Holy Ghost, priority 1996, dated 1998).
Where “and” joins values, the source holds several entries; their conditions need not be identical. Equal values may be shown once. Where a name gives a salt, the structure may show the parent alone.

What was measured:
Assay type in all cases: in vivo, rat
[1] = tested on: scopolamine-induced amnesia in rats; assay: Passive avoidance test (Gemini Avoidance System), crossover latency, scopolamine-induced amnesia
brain sulfatase = assay: Brain sulfatase activity after IP dosing of rats; conditions: 30 mg/kg IP; for Brain Sulfatase Activity: mean ± SEM, P<0.01 vs control, corn oil control 3.24 ± 0.32
Description: (§1) DU-14 was tested for its sulfatase inhibition in rats. 30 mg/kg of the compound was administered to rats IP for 15 days. Sulfatase inhibition was measured by the sulfatase activity in ng E1 S/μg protein/hr in the liver and brain as determined by methods known in the art. The results are presented below in Tables 1 and 2.

liver sulfatase = assay: Liver sulfatase activity after IP dosing of rats; conditions: for % Inhibition of liver sulfatase / Liver Sulfatase Activity: 30 mg/kg IP; for Liver Sulfatase Activity: mean ± SEM, P<0.01 vs control, corn oil control 164.10 ± 2.5
Description: as §1

C[C@]12CC[C@H](OS(=O)(=O)O)CC1=CC[C@@H]1[C@@H]2CC[C@]2(C)C(=O)CC[C@@H]12 [DHEAS, dehydroepiandrosterone sulfate, reference compound]
maximum crossover latency ([1]; DHEAS 20 mg/Kg IP one hour before acquisition trial, scopolamine 1 mg/Kg IP 30 minutes before): 262.5 ± 84.6 s | reversal of scopolamine-induced amnesia ([1]; DHEAS 5-70 mg/kg IP one hour before acquisition trial, bell shaped dose response curve): significant (p≤0.05), reversal of scopolamine-induced amnesia

CCCCCCCCCCCCCC(=O)NCCc1ccc(OS(N)(=O)=O)cc1 [DU-14]
% Inhibition of brain sulfatase (brain sulfatase; 1 Day): 14.8% | Brain Sulfatase Activity (brain sulfatase; 1 Day): 2.76 ± 0.27 pg E1 S/μg protein/hr | Brain Sulfatase Activity (brain sulfatase; 15 Days): 0.48 ± 0.10 pg E1 S/μg protein/hr | % Inhibition of liver sulfatase (liver sulfatase; 1 Day): 95.2% | Liver Sulfatase Activity (liver sulfatase; 1 Day): 7.85 ± 0.65 ng E1 S/μg protein/hr | % Inhibition of liver sulfatase (liver sulfatase; 15 Days, 30 mg/kg): 97.6% and ~98% | Liver Sulfatase Activity (liver sulfatase; 15 Days): 4.01 ± 0.23 ng E1 S/μg protein/hr | liver sulfatase after only 1 day (liver sulfatase; 1 day, from about 164): about 8 | crossover latency ([1]; DU-14 alone 30 mg/Kg IP daily for 15 days before acquisition trial, scopolamine): 278.7±88.1 | reversal of scopolamine-induced amnesia ([1]; DU-14 alone daily for 15 days, 30 mg/Kg IP): significant (p≤0.05) reversal of scopolamine-induced amnesia | crossover latency ([1]; DU-14 alone, single dose 30 mg/Kg IP four hours before acquisition trial): failed to increase crossover latency | crossover latency, overall conclusion ([1]; summary of Example III): significant increase in crossover latency
